Reference: patent US11505592B2, “Diagnosis and therapy of multiple sclerosis” (PRINDEX S.R.L., priority 2015, dated 2022)

Assays:
[1] = tested on: CTRL sera; experiment: PEPSCAN-based ELISA, binding of control (CTRL) sera to library peptides; parameters: species or system human; details: ELISA binding value, CTRLs n = 10
Description: (§1) The linear and CLIPS peptides are synthesized based on the amino acid sequence of the target protein using standard Fmoc-chemistry and deprotected using […] with scavengers. The constrained peptides are synthesized on chemical scaffolds in order to reconstruct conformational epitopes, using Chemically Linked Peptides on Scaffolds (CLIPS) technology (Timmerman et al. (2007). For example, the single looped peptides are synthesized containing a dicysteine, which was cyclized by treating with alpha, alpha′-dibromoxylene and the size of the loop is varied by introducing cysteine residues at variable spacing. If other cysteines besides the newly introduced cysteines are present, they are replaced by alanine. The side-chains of the multiple cysteines in the peptides are coupled to CLIPS templates by reacting onto credit-card format polypropylene PEPSCAN cards (455 peptide formats/card) with a 0.5 mM solution of CLIPS template such as 1,3-bis (bromomethyl) benzene in ammonium bicarbonate (20 mM, pH 7.9)/acetonitrile (1:1(v/v)). The cards are gently shaken in the solution for 30 to 60 minutes while completely covered in solution. Finally, the cards are washed extensively with excess of H2O and sonicated in distrupt-buffer containing 1 percent SDS/0.1 percent beta-mercaptoethanol in PBS (pH 7.2) at 70° C. for 30 minutes, followed by sonication in H2O for another 45 minutes.
(§2) The binding of antibody to each peptide is tested in a PEPSCAN-based ELISA. The 455-well credit card format polypropylene cards containing the covalently linked peptides are incubated with primary antibody solution for example consisting of 1/1000 diluted serum in blocking solution, for example 4% horse serum, 5% ovalbumin (w/v) in PBS/1% Tween. After washing, the peptides are incubated with a 1/1000 dilution of antibody peroxidase conjugate for one hour at 25° C. After washing, the peroxidase substrate 2,2′-azino-di-3-ethylbenzthiazoline sulfonate (ABTS) and 2 microlitres of 3 percent H2O2 are added. After one hour, the color development are measured. The color development are quantified with a charge coupled device (CCD)-camera and an image processing system (Slootstra et al., 1996).
(§3) The raw data are optical values obtained by a CCD-camera calibrated to export absorption values compatible with a standard 96-well plate ELISA-reader. First the CCD-camera makes a picture of the card before peroxidase coloring and then again a picture after the peroxidase coloring. These two pictures are substracted from each other yielding a binding value for each peptide.
(§4) All peptides have been synthesized in a peptide array format and the binding of 20 different sera to all peptide libraries were measured in an ELISA based set up following the procedure described in detail in the method section “Peptide synthesis and screening assays”. In particular 2 sets of experiments were performed on the 2 libraries by using 2 different dilutions of the human patients sera. In the first set of experiment the 20 sera were used at 1:2500 dilutions, while in the second experiment the dilution of the sera was 1:1000. The binding of the different sera to all peptides was quantified and analyzed in detail (Tables 1 and 2, FIGS. 15A, B, C, D and […]

[2] = tested on: MS sera; experiment: PEPSCAN-based ELISA, binding of MS sera to library peptides; parameters: species or system human; details: ELISA binding value, MS sera n = 9
Description: as §1, §2, §3, §4

Sequence	MEAN CTRL ([1]; NOX2 library)	MEAN MS ([2]; NOX2 library)	MEAN CTRL ([1]; 5HT2A receptor library)	MEAN MS ([2]; 5HT2A receptor library)
CVNARVNNSDPYSVALCVSEQKISEWGKIKESC [SEQ ID NO: 128]	436.575	772.583	–	–
CSDAFNWTVDSENRCMDILSEENTSLSSC [Peptide 22]	–	–	207.20	394.00
CESLAVHNITVSEQKICQNESYLNFARKRIKNC [SEQ ID NO: 74]	354.9	689.556	–	–
CSELGDRQNESYLNFACQNESYLNFARKRIKNC [SEQ ID NO: 80]	398.9	773.167	–	–
TVCEQKISEWGKIKE [SEQ ID NO: 94]	289.4	514.944	–	–
CFNWTVDSENRTNLCMDILSEENTSLSSC [Peptide 30]	–	–	174.90	312.00
NFARKRIKNPAAGLY [SEQ ID NO: 77]	323.85	604.167	–	–
LTILYGYRWPAASKL [Peptide 3]	–	–	322.35	653.28
CTVDSENRTNLSSECRTNLSSEGSLSPSC [Peptide 25]	–	–	296.95	507.22
STTNSLMQLNAATRL [Peptide 31]	–	–	385.15	611.83
NITVCEQKISAAGKI [SEQ ID NO: 96]	314.2	564.500	–	–
CRVNNSDPYSVALSELCVSEQKISEWGKIKESC [SEQ ID NO: 151]	422.275	731.111	–	–
YRWPLPSKL [Peptide 5]	–	–	285.70	566.00
YLNFARKRI [SEQ ID NO: 140]	345.85	601.667	–	–
CNSDPYSVALSELGDRCITVSEQKISEWGKIKC [SEQ ID NO: 143]	456.45	781.611	–	–
CNITVSEQKISAAGKIC [SEQ ID NO: 105]	460.55	828.167	–	–
CQKISEWGKIKESPIPCQNESYLNFARKRIKNC [SEQ ID NO: 69]	458.3	855.111	–	–

Sequence	MEAN CTRL ([1]; NOX2 library)	MEAN MS ([2]; NOX2 library)	MEAN CTRL ([1]; 5HT2A receptor library)	MEAN MS ([2]; 5HT2A receptor library)
CLGDRQNESYLAAARKC [SEQ ID NO: 145]	402.85	698.944	–	–
LGDRQNESYLAAARK [SEQ ID NO: 127]	262.75	478.278	–	–
GYRWPLPSK [Peptide 14]	–	–	322.80	623.00
VNARVNNSDPAAVAL [SEQ ID NO: 118]	219.15	426.444	–	–
WCVNARVNNSDPYSV [SEQ ID NO: 121]	163.8	283.889	–	–
CNSDPYSVALSELGDRCVSEQKISEWGKIKESC [SEQ ID NO: 130]	434.925	764.528	–	–
CDSKVFKEGSSLLACKESSNEDVIGALLC [Peptide 16]	–	–	347.50	604.03
CHGAERIVRGQTAESLCQNESYLNFARKRIKNC [SEQ ID NO: 73]	407.2	748.111	–	–
CVSEQKISEWGKIKESCVSEQKISEWGKIKESC [SEQ ID NO: 115]	432.35	756.639	–	–
CQKISEWGKIKESPIPCVSEQKISEWGKIKESC [SEQ ID NO: 98]	450.975	815.972	–	–
CMQLNDDTRLYSNDCSGEANTSDAFNWTC [Peptide 15]	–	–	257.25	497.78
CVNARVNNSDPYSVALCTVSEQKISEWGKIKEC [SEQ ID NO: 154]	455.6	799.667	–	–
CLYGYRWPLPSKLSCYSNDFNSGEANTSC [Peptide 32]	–	–	288.50	555.67
LTILYGYRWPLPSKL [Peptide 8]	–	–	340.05	647.17
CHGAERIVRGQTAESLCSYLNFARKRIKNPEGC [SEQ ID NO: 82]	417.5	755.722	–	–
CQNESYLNFARKRIKNCNFARKRIKNPEGGLYC [SEQ ID NO: 150]	392.3	697.056	–	–
